System: human fibroblasts HS-68
Assay: Cell line specific cytotoxicity, count of Hoechst labeled nuclei, normal cells HS68
Type: cell-based
Method: For examination of cell line-specific cytotoxicity, compounds were applied to human colorectal cancer cells (HCT116, denoted (1); SW480, denoted (2); Dld-1, denoted (3)) and human fibroblasts (HFF-1, denoted (4); HS-68, denoted (5)), cultured in Mc Coy's (1) and Dulbecco's Modified Eagles Medium (2-5), supplemented with 10% ((1)-(3)) and 20% ((4), (5)) fetal calf serum and 1% penicillin/streptomycin. Cells were grown in T75 flasks at 37° C., 5% CO2 and trypsinized when 60-80% confluent by adding 2 ml of 0.25% Trypsin-EDTA solution. Cells were then re-suspended into culture medium and approx. 750 cells, suspended in 45 microl medium, were plated into each well of a black 384-well plate for fluorescence imaging experiments. […] Compound incubation was terminated by (a) fixation and (b) permeabilisation of cells, followed by (c) fluorescence labeling of cell nuclei for cytometric quantification or by immunocytochemistry for microscopic evaluation of cell morphology. The three steps were performed by replacing the solution of the previous step in each well of a 384-well plate by (a) 30 microl PBS (phosphate buffered saline) containing 5% PFA (paraformaldehyde), (b) 30 microl PBS containing 0.2% TritonX-100 and (c) 10 microl PBS containing Hoechst-33342 for cytometry or Hoechst-33342, FITC (fluorescein isothiocyanate-) labeled α-tubulin antibodies and TRITC-(tetramethylrhodamine isothiocyanate-) labeled phalloidin antibodies for microscopy. Solutions were incubated for 15 (a,b) and 30 min (c) in the dark at room temperature. Cells were washed twice between each step with 30 microl PBS. The assay system was miniaturized and adapted to automated workflow using liquid-handling robotics.
Cell line-specific cytotoxicity was quantified by counting the number of Hoechst labeled nuclei per well of a 384-well plate using a plate cytometer. Data obtained with the cytometer was analysed using standard data analysis software. […]

SMILES | Normalized cell count (HS68) (0.005 micoM) | Normalized cell count (HS68) (0.015 micoM) | Normalized cell count (HS68) (0.046 micoM) | Normalized cell count (HS68) (0.137 micoM) | Normalized cell count (HS68) (0.412 micoM) | Normalized cell count (HS68) (1.235 micoM) | Normalized cell count (HS68) (3.704 micoM) | Normalized cell count (HS68) (11.111 micoM) | Normalized cell count (HS68) (33.333 micoM) | Normalized cell count (HS68) (100.000 micoM)
CCOC(=O)C1=C(c2ccccc2)c2c(n(-c3ccccc3)c(=O)n3c(-c4ccc(OC)cc4)nnc23)NC1C (stereo not drawn) [Example 18] | 1 | 0.9938 | 1.014 | 0.9488 | 0.9736 | 1.014 | 0.7952 | 0.5499 | 0.3651 | 0.4385
CCOC(=O)C1=C(c2ccccc2)c2c(n(-c3ccccc3)c(=O)n3c(-c4cccc(OC)c4)nnc23)NC1C (stereo not drawn) [Example 16, 3-(3-Methoxy-phenyl)-7-methyl-4-oxo-5,9-diphenyl-4,5,6,7-tetrahydro-1,2,3a,5,6-pentaaza-cyclopenta[a]naphthalene-8-carboxylic acid ethyl ester] | 1 | 0.9904 | 1.038 | 1.056 | 1.111 | 1.051 | 1.175 | 1.144 | 0.8005 | 0.9046
CCOC(=O)C1=C(C)Nc2c(c3nnc(-c4cccc(OC)c4)n3c(=O)n2-c2ccccc2)C1c1ccccc1 (stereo not drawn) [Example 15, 3-(3-Methoxy-phenyl)-7-methyl-4-oxo-5,9-diphenyl-4,5,6,9-tetrahydro-1,2,3a,5,6-pentaaza-cyclopenta[a]naphthalene-8-carboxylic acid ethyl ester] | 1 | 0.9166 | 1.018 | 0.9967 | 0.9484 | 0.961 | 0.9772 | 0.9757 | 0.9593 | 0.9099

— patent US8629272B2, “Tricyclic pyrimidine derivatives as wnt antagonists” (Deutsches Krebsforschungszentrum, priority 2009, dated 2014)
